Consider two molecules from patent EP0311193B1, “Antifungal fermentation product” (priority 1987, dated 1989).

Data set [1] deals with filamentous fungi. Description: disc diffusion antifungal assay, filamentous fungi. The format is cell-based. Conditions: disc diffusion against the listed filamentous fungi; 28°C or 37°C, 24 hours. On the procedure: (§1) This may be seen in an antifungal assay employing a disc diffusion method against yeasts and filamentous fungi (molds).
(§2) In the disc diffusion method, seeded assay plates are first prepared in one of the following manners according to the type of organism.
Inocula for filamentous fungi are prepared by scraping the surface of stock plates maintained on potato dextrose agar with a moistened sterile dacron swab. The spores and mycelia are then suspended in 10 milliliters of sterile potato dextrose broth and adjusted to 70 percent transmission at 660 nm.
(§3) For three strains of Candida albicans and one strain of Saccharomyces cerevisiae, sterile saline is employed in place of potato dextrose broth. Assay plates are prepared by dilution the inoculum into appropriate molten agar medium, cooled to 45°C to obtain a final concentration of 4 percent (volume/volume).
(§4) The seeded agar media thus prepared are dispensed into petri dishes for assays (11 milliliters per dish).
The samples to be tested for production of antifungal agent are applied to 6.2 mm. filter paper discs (25 microliter/disc) and air dried at 24°C. When the sample to be tested is a crude broth, it may be centrifuged prior to application. […] Following incubation, the inhibition zones are measured and recorded. […]
(A growth-free zone around the sample is the usual read-out of agar diffusion tests.)

For data set [2], the system named is Candida albicans. Description: mice experimentally infected with Candida albicans. The format is in vivo. The text has this:
These properties point to a new antifungal drug with great potential in the therapy of human mycotic infections.

The test system of data set [3] is yeasts. Put plainly: disc diffusion antifungal assay, yeasts. The class given is cell-based. Conditions: disc diffusion against the listed yeasts; 28°C or 37°C, 24 hours. On the procedure:
as §1, §2
Inocula for yeasts are prepared from overnight broth cultures then diluted into potato dextrose […] to a final concentration of either 40 percent or 70 percent transmission at 660 nm.
as §3, §4
The samples to be tested for production of antifungal agent are applied to 6.2 mm. filter paper discs (25 microliter/disc) and air dried at 24°C. When the sample to be tested is a crude broth, it may be centrifuged prior to application. The discs bearing the material to be tested are then applied employing sterile conditions to the seeded assay plates and the samples rewet with 25 percent sterile aqueous dimethylsulfoxide (25 µl/disc). […] Following incubation, the inhibition zones are measured and recorded. […]

Data set [4] has as its system Candida albicans. Description: agar dilution assay (MIC), expanded panel of strains. The class given is cell-based. Conditions: against 5 of 34 different strains of Candida albicans, 28°C, 48 hours. How it is done: The activity may be seen in an agar dilution assay employing a yeast nitrogen base dextrose agar medium. In carrying out the assay, Compound I was solubilized in 10 percent dimethyl sulfoxide (DMSO) supplemented with one drop of Tween 20. Twofold dilutions were made with sterile distilled water/10 percent DMSO to obtain final drug concentrations in the agar dilution assay plates ranging from 128 to 0.06 µg/ml.
The yeast cultures, maintained in yeast maltose (YM) broth, were transferred to fresh YM medium and incubated overnight at 35°C with shaking (250 rpm). After incubation, each culture was diluted in sterile saline to yield a final concentration of 3x10⁵ to 3x10⁶ colony forming units (CFU)/ml.
Each prepared plate was inoculated using a Denley Multipoint Inoculator (Denley, Sussex, England) which delivers approximately 0.001 milliliter to the agar surface resulting in inoculation of from 3x10² to 3x10³ CFUs. The plates were incubated at 28°C for 48 hours. The minimum inhibitory concentrations (MICs) were recorded as the lowest concentrations of drug showing no growth or less than three CFU/spot.
In a similar assay, Compound I was tested against an expanded panel of 34 different strains of Candida albicans and 13 different strains of Candida parapsilosis.

In data set [5] the test system is red blood cell. Description: titration/hemolysis assay (red blood cell lysis). To be noted: highest drug concentration that did not lyse the red blood cells; 25°C, two hours; range tested 0.39 to 400 µg/ml in 5 percent dextrose.
Experimental: Concentration of drug in the range of from 0.39 to 400 µg/ml in 5 percent dextrose and a drug free control were employed.
In carrying out the determination, the assay tubes prepared by mixing together 2 milliliters of appropriate drug dilution and 0.5 milliliter of red blood cell suspension were gently shaken to mix the contents and then the tubes were incubated at 25°C for two hours. At the end of this time, the tubes were examined visually for complete or partial red blood cell hemolysis and compared to a drug free control.

Numbered stars: 1 amine (or outer) side, 2 acyl side, 3 side chain; on linkers, the order of the positions; unused ones are H or OH. Bridge positions count the residues as written; N and C are the ends. Square brackets hold non-standard residues; d marks the D form. Peptide text beside a SMILES is read from it. * marks the point of attachment. Orn(4R-OH,5R-OH) = O=C([C@H](C[C@@H](O)[C@@H](O)N[*:3])N[*:1])[*:2]; hTyr(3S-OH,4S-OH) = N[C@H](C(=O)O)[C@H](O)[C@@H](O)c1ccc(O)cc1; Pro(3S-OH,4S-Me) = C[C@H]1CN[C@H](C(=O)O)[C@H]1O; Gln(3R-OH) = NC(=O)C[C@@H](O)[C@H](N)C(=O)O; Hyp = O=C(O)[C@@H]1C[C@@H](O)CN1; X1 = CCC(C)CC(C)CCCCCCCCC(=O)* Where only a bound is given, the exact number is not on record here.

Regarding `CCC(C)CC(C)CCCCCCCCC(=O)N[C@H]1C[C@@H](O)[C@@H](O)NC(=O)[C@@H]2[C@@H](O)[C@@H](C)CN2C(=O)[C@H]([C@H](O)CC(N)=O)NC(=O)[C@H]([C@H](O)[C@@H](O)c2ccc(O)cc2)NC(=O)[C@@H]2C[C@@H](O)CN2C(=O)[C@H]([C@@H](C)O)NC1=O` (stereo partly drawn) [Compound I, 1-[(4R, 5R) 4,5-dihydroxy N²-(10,12-dimethyl-1-oxotetradecyl)-L-ornithine]-5-(threo-3-hydroxy-L-glutamine)echinocandin B] (X1-[Orn(4R-OH,5R-OH)]T[Hyp][hTyr(3S-OH,4S-OH)][Gln(3R-OH)][Pro(3S-OH,4S-Me)]; lactam 1-C), the “antifungal properties (inhibition zones)” value in data set [1] and in data set [3] was “good antifungal properties” each time. Moreover, in data set [2] (kidneys of experimentally infected mice), the “eradication of Candida albicans from kidneys” value is listed as “eradicate Candida albicans from kidneys”. In addition, the “survival of mice infected with Candida albicans” value in data set [2] (mice infected with Candida albicans) was “significantly prolong the survival”. Also, in data set [4], the MIC is more than 1 µg/mL.
Take `C[C@@H]1[C@H](O)[C@@H](C)/C=C/C=C/C=C/C=C/C=C/C=C/C=C/[C@H](O[C@@H]2O[C@H](C)[C@@H](O)[C@H](N)[C@@H]2O)C[C@@H]2O[C@](O)(C[C@@H](O)C[C@@H](O)[C@H](O)CC[C@@H](O)C[C@@H](O)CC(=O)O[C@H]1C)C[C@H](O)[C@H]2C(=O)O` [amphotericin B]: in data set [5], the “minimum lytic concentration (MLC)” value amounted to 12.5 µg/mL.

For orientation: MIC means the least concentration at which growth counts as inhibited.
